# In patent US11173150B2, “Method for diagnosing, preventing, and treating neurological diseases” (United States Government As Represented By The Department …, priority 2010, dated 2021):
# Like-named read-outs stand apart in the source and are kept apart here. Bridge positions count the residues as written; N and C are the ends. Square brackets hold non-standard residues; d marks the D form. Peptide text beside a SMILES is read from it. * marks the point of attachment. Octanoyl(6-Me) = CCC(C)CCCCC(=O)*; Dab = NCC[CH](N)C(=O)O
# Legend:
# [1] = cited from earlier work
# clostridia = details: cited from earlier work
# tetanus toxin = tetanus toxin (Clostridium tetani, UniProt P04958); details: cited from earlier work
# Desulfovibrio = experiment: Antimicrobial susceptibility testing, CLSI serial two-fold plate dilution; assay type: cell-based
# [2] = Desulfovibrio type strain 7757^T
# [3] = Desulfovibrio type strain 29098^T
# [4] = Desulfovibrio, Desulfovibrio strain 8951, read-out: MIC
# [5] = Desulfovibrio, Desulfovibrio strain 11232, read-out: MIC
# [6] = Desulfovibrio, Desulfovibrio strain 11437, read-out: MIC
# [7] = Desulfovibrio, Desulfovibrio strain 11789, read-out: MIC
# [8] = Desulfovibrio, Desulfovibrio strain 11830, read-out: MIC
# [9] = Desulfovibrio, Desulfovibrio strain 12379, read-out: MIC
# [10] = Desulfovibrio, Desulfovibrio strain 13966, read-out: MIC
# [11] = Desulfovibrio, Desulfovibrio type strain 29098^T, read-out: MIC
# Sequence of tetanus toxin (P04958 whole entry, looked up): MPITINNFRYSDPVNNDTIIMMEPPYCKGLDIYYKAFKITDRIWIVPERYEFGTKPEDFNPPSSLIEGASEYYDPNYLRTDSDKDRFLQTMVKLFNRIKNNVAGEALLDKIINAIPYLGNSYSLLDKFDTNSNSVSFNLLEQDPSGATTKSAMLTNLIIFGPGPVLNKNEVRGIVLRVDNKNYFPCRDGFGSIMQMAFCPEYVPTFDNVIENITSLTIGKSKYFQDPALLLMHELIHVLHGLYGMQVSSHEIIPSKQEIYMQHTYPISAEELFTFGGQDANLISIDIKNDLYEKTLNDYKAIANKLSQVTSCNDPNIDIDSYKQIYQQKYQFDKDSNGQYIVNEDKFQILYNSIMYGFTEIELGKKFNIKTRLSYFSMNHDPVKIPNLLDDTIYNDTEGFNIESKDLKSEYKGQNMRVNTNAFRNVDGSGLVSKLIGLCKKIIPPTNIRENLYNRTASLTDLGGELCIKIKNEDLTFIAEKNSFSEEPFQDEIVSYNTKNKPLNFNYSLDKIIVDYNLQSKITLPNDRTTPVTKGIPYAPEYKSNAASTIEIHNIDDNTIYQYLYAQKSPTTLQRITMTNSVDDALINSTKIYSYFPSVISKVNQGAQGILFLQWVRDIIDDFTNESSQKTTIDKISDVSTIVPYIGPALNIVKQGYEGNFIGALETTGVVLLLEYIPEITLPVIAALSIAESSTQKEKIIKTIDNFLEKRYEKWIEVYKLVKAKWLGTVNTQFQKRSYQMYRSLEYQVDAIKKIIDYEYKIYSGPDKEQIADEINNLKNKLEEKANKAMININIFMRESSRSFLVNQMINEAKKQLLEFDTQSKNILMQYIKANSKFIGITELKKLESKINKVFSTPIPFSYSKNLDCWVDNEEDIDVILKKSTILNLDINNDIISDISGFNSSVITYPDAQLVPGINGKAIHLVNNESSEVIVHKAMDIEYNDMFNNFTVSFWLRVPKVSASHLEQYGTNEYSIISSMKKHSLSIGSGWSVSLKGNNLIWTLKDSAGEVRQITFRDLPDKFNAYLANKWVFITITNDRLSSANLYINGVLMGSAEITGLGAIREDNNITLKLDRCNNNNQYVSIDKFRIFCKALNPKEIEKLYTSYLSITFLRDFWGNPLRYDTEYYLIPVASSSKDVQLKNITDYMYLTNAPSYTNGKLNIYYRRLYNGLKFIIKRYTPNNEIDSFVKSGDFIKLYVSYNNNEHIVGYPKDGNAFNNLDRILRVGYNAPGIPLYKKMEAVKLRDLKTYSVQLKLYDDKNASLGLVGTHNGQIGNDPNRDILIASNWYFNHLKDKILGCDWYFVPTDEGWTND
compound,measurement,setting,value
ramoplanin,Systemic absorption in humans,[1]; humans,not detectably absorbed
same,Activity against clostridia,clostridia,very good activity
C[C@H](CS)C(=O)N1CCC[C@H]1C(=O)O [Captopril],Effect on tetanus toxin in vitro,tetanus toxin,inactivates
Colistin,MIC,Desulfovibrio; Desulfovibrio strain 4019,>512 µg/mL
same,MIC,Desulfovibrio; Desulfovibrio strain 8236,>512 µg/mL
same,MIC,Desulfovibrio; Desulfovibrio strain 8381,>512 µg/mL
same,MIC,Desulfovibrio; Desulfovibrio strain 8907,>512 µg/mL
same,MIC,Desulfovibrio; Desulfovibrio strain 8933,>512 µg/mL
same,MIC,Desulfovibrio; Desulfovibrio strain 8951,>512 µg/mL
same,MIC,Desulfovibrio; Desulfovibrio strain 9070,>512 µg/mL
same,MIC,Desulfovibrio; Desulfovibrio strain 9120,>512 µg/mL
same,MIC,Desulfovibrio; Desulfovibrio strain 9706,>512 µg/mL
same,MIC,Desulfovibrio; Desulfovibrio strain 9976,>512 µg/mL
same,MIC,Desulfovibrio; Desulfovibrio strain 10831,>512 µg/mL
same,MIC,Desulfovibrio; Desulfovibrio strain 11081,>512 µg/mL
same,MIC,Desulfovibrio; Desulfovibrio strain 11094,>512 µg/mL
same,MIC,Desulfovibrio; Desulfovibrio strain 11232,>512 µg/mL
same,MIC,Desulfovibrio; Desulfovibrio strain 11346,>512 µg/mL
same,MIC,Desulfovibrio; Desulfovibrio strain 11378,>512 µg/mL
same,MIC,Desulfovibrio; Desulfovibrio strain 11437,>512 µg/mL
same,MIC,Desulfovibrio; Desulfovibrio strain 11568,>512 µg/mL
same,MIC,Desulfovibrio; Desulfovibrio strain 11623,>512 µg/mL
same,MIC,Desulfovibrio; Desulfovibrio strain 11717,>512 µg/mL
same,MIC,Desulfovibrio; Desulfovibrio strain 11789,>512 µg/mL
same,MIC,Desulfovibrio; Desulfovibrio strain 11830,>512 µg/mL
same,MIC,Desulfovibrio; Desulfovibrio strain 11949,>512 µg/mL
same,MIC,Desulfovibrio; Desulfovibrio strain 12379,>512 µg/mL
same,MIC,Desulfovibrio; Desulfovibrio strain 13966,>512 µg/mL
same,MIC,Desulfovibrio; [2],>512 µg/mL
same,MIC,Desulfovibrio; [3],>512 µg/mL
same,Absorption when given by the oral route,[1]; oral,virtually unabsorbed
same,Penetration of the intestinal mucosa,[1]; oral,do not penetrate the intestinal mucosa
NC[C@H]1O[C@H](O[C@H]2[C@H](O)[C@@H](O[C@H]3O[C@H](CO)[C@@H](O)[C@H](N)[C@H]3O)[C@H](N)C[C@@H]2N)[C@H](O)[C@@H](O)[C@@H]1O [Kanamycin],MIC,"Desulfovibrio; Desulfovibrio, Desulfovibrio strain 4019, read-out: MIC",512 µg/mL
same,MIC,"Desulfovibrio; Desulfovibrio, Desulfovibrio strain 8236, read-out: MIC",512 µg/mL
same,MIC,"Desulfovibrio; Desulfovibrio, Desulfovibrio strain 8381, read-out: MIC",256 µg/mL
same,MIC,"Desulfovibrio; Desulfovibrio, Desulfovibrio strain 8907, read-out: MIC",256 µg/mL
same,MIC,"Desulfovibrio; Desulfovibrio, Desulfovibrio strain 8933, read-out: MIC",512 µg/mL
same,MIC,Desulfovibrio; [4],512 µg/mL
same,MIC,"Desulfovibrio; Desulfovibrio, Desulfovibrio strain 9070, read-out: MIC",512 µg/mL
same,MIC,"Desulfovibrio; Desulfovibrio, Desulfovibrio strain 9120, read-out: MIC",256 µg/mL
same,MIC,"Desulfovibrio; Desulfovibrio, Desulfovibrio strain 9706, read-out: MIC",256 µg/mL
same,MIC,"Desulfovibrio; Desulfovibrio, Desulfovibrio strain 9976, read-out: MIC",128 µg/mL
same,MIC,"Desulfovibrio; Desulfovibrio, Desulfovibrio strain 10831, read-out: MIC",256 µg/mL
same,MIC,"Desulfovibrio; Desulfovibrio, Desulfovibrio strain 11081, read-out: MIC",512 µg/mL
same,MIC,"Desulfovibrio; Desulfovibrio, Desulfovibrio strain 11094, read-out: MIC",512 µg/mL
same,MIC,Desulfovibrio; [5],256 µg/mL
same,MIC,"Desulfovibrio; Desulfovibrio, Desulfovibrio strain 11346, read-out: MIC",512 µg/mL
same,MIC,"Desulfovibrio; Desulfovibrio, Desulfovibrio strain 11378, read-out: MIC",512 µg/mL
same,MIC,Desulfovibrio; [6],128 µg/mL
same,MIC,"Desulfovibrio; Desulfovibrio, Desulfovibrio strain 11568, read-out: MIC",512 µg/mL
same,MIC,"Desulfovibrio; Desulfovibrio, Desulfovibrio strain 11623, read-out: MIC",256 µg/mL
same,MIC,"Desulfovibrio; Desulfovibrio, Desulfovibrio strain 11717, read-out: MIC",512 µg/mL
same,MIC,Desulfovibrio; [7],256 µg/mL
same,MIC,Desulfovibrio; [8],128 µg/mL
same,MIC,"Desulfovibrio; Desulfovibrio, Desulfovibrio strain 11949, read-out: MIC",128 µg/mL
same,MIC,Desulfovibrio; [9],512 µg/mL
same,MIC,Desulfovibrio; [10],512 µg/mL
same,MIC,"Desulfovibrio; Desulfovibrio, Desulfovibrio type strain 7757^T, read-out: MIC",512 µg/mL
same,MIC,Desulfovibrio; [11],128 µg/mL
same,Absorption when given by the oral route,"[1]; in vivo, po",virtually unabsorbed
Trimethoprim/sulfamethoxazole [TMX/Sul],MIC,Desulfovibrio; Desulfovibrio strain 8381,256 µg/mL
same,MIC,Desulfovibrio; Desulfovibrio strain 8907,512 µg/mL
same,MIC,Desulfovibrio; Desulfovibrio strain 8933,256 µg/mL
same,MIC,Desulfovibrio; Desulfovibrio strain 8951,256 µg/mL
same,MIC,Desulfovibrio; Desulfovibrio strain 9070,>512 µg/mL
same,MIC,Desulfovibrio; Desulfovibrio strain 9120,256 µg/mL
same,MIC,Desulfovibrio; Desulfovibrio strain 9706,256 µg/mL
same,MIC,Desulfovibrio; Desulfovibrio strain 9976,256 µg/mL
same,MIC,Desulfovibrio; Desulfovibrio strain 11232,128 µg/mL
same,MIC,Desulfovibrio; Desulfovibrio strain 11346,512 µg/mL
same,MIC,Desulfovibrio; Desulfovibrio strain 11437,4 µg/mL
same,MIC,Desulfovibrio; Desulfovibrio strain 11568,>512 µg/mL
same,MIC,Desulfovibrio; Desulfovibrio strain 11623,512 µg/mL
same,MIC,Desulfovibrio; Desulfovibrio strain 11949,512 µg/mL
same,MIC,Desulfovibrio; Desulfovibrio strain 13966,512 µg/mL
same,MIC,Desulfovibrio; [2],>512 µg/mL
same,MIC,Desulfovibrio; [3],256 µg/mL
CCC(C)CCCCC(=O)NC(CCN)C(=O)NC(C(=O)NC(CCN)C(=O)NC1CCNC(=O)C(C(C)O)NC(=O)C(CCN)NC(=O)C(CCN)NC(=O)C(CC(C)C)NC(=O)C(Cc2ccccc2)NC(=O)C(CCN)NC1=O)C(C)O (stereo not shown) [Polymyxin B] ({Octanoyl(6-Me)}-[Dab]T[Dab][Dab][Dab]FL[Dab][Dab]T; lactam 4-C; configuration not given here),MIC,Desulfovibrio; Desulfovibrio strain 4019,256 µg/mL
same,MIC,Desulfovibrio; Desulfovibrio strain 8236,256 µg/mL
same,MIC,Desulfovibrio; Desulfovibrio strain 8381,>512 µg/mL
same,MIC,Desulfovibrio; Desulfovibrio strain 8907,>512 µg/mL
same,MIC,Desulfovibrio; Desulfovibrio strain 8933,>512 µg/mL
same,MIC,Desulfovibrio; Desulfovibrio strain 8951,>512 µg/mL
same,MIC,Desulfovibrio; Desulfovibrio strain 9070,>512 µg/mL
same,MIC,Desulfovibrio; Desulfovibrio strain 9120,>512 µg/mL
same,MIC,Desulfovibrio; Desulfovibrio strain 9706,>512 µg/mL
same,MIC,Desulfovibrio; Desulfovibrio strain 9976,>512 µg/mL
same,MIC,Desulfovibrio; Desulfovibrio strain 10831,128 µg/mL
same,MIC,Desulfovibrio; Desulfovibrio strain 11081,256 µg/mL
same,MIC,Desulfovibrio; Desulfovibrio strain 11094,256 µg/mL
same,MIC,Desulfovibrio; Desulfovibrio strain 11232,>512 µg/mL
same,MIC,Desulfovibrio; Desulfovibrio strain 11346,>512 µg/mL
same,MIC,Desulfovibrio; Desulfovibrio strain 11378,256 µg/mL
same,MIC,Desulfovibrio; Desulfovibrio strain 11437,>512 µg/mL
same,MIC,Desulfovibrio; Desulfovibrio strain 11568,>512 µg/mL
same,MIC,Desulfovibrio; Desulfovibrio strain 11623,>512 µg/mL
same,MIC,Desulfovibrio; Desulfovibrio strain 11717,256 µg/mL
same,MIC,Desulfovibrio; Desulfovibrio strain 11789,16 µg/mL
same,MIC,Desulfovibrio; Desulfovibrio strain 11830,128 µg/mL
same,MIC,Desulfovibrio; Desulfovibrio strain 11949,>512 µg/mL
same,MIC,Desulfovibrio; Desulfovibrio strain 12379,8 µg/mL
same,MIC,Desulfovibrio; Desulfovibrio strain 13966,>512 µg/mL
same,MIC,Desulfovibrio; [2],256 µg/mL
same,MIC,Desulfovibrio; [3],256 µg/mL
same,Absorption when given by the oral route,[1]; oral,virtually unabsorbed
same,Penetration of the intestinal mucosa,[1]; oral,do not penetrate the intestinal mucosa
C[C@H]1[C@H](NC(=O)/C(=N\OC(C)(C)C(=O)O)c2csc(N)n2)C(=O)N1S(=O)(=O)O [Aztreonam],MIC,"Desulfovibrio; Desulfovibrio, Desulfovibrio strain 4019",512 µg/mL
same,MIC,"Desulfovibrio; Desulfovibrio, Desulfovibrio strain 8381",128 µg/mL
same,MIC,Desulfovibrio; [4],64 µg/mL
same,MIC,"Desulfovibrio; Desulfovibrio, Desulfovibrio strain 9070",512 µg/mL
same,MIC,Desulfovibrio; [5],64 µg/mL
same,MIC,Desulfovibrio; [6],64 µg/mL
same,MIC,Desulfovibrio; [7],32 µg/mL
same,MIC,Desulfovibrio; [8],64 µg/mL
same,MIC,Desulfovibrio; [9],16 µg/mL
same,MIC,Desulfovibrio; [10],24 µg/mL
same,MIC,Desulfovibrio; [11],32 µg/mL
same,Absorption when given by the oral route,[1]; oral,virtually unabsorbed
